The values that follow come from article PMC5430874 (Scientific Reports, 2017).

By EC50 is commonly meant the concentration needed to bring the measured effect to its halfway point. Usually Emax stands for the greatest response seen or fitted, relative to the assay's reference.

Where a chain is given by its changes, count along the chain named.

Common to all, as to type: cell-based
One experiment addresses T1, GPR139 L87F2x64 (Homo sapiens, UniProt Q6DWJ6, L87F).
T1 construct: mGluR5 signal peptide (N); expressed in transfected cells; host or cells: HEK293
T1 sequence (Q6DWJ6 2-353 L87F limits assumed): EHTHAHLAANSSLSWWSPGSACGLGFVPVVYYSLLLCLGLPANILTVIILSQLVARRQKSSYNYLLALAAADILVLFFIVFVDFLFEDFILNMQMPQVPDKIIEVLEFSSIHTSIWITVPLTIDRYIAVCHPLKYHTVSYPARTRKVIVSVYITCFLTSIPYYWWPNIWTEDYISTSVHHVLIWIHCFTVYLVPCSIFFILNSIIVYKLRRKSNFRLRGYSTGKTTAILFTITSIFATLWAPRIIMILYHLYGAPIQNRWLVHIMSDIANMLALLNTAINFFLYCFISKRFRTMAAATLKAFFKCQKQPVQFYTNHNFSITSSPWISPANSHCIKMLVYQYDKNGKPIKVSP
The experiment is described as follows: Fluo-4 Ca2+-assay, GPR139 mutant L87F. The text has this: (§1) To study the influence of specific amino acids in the predicted binding pocket on receptor function, the desired mutations were introduced into an N-terminally c-myc-tagged wild type human GPR139 (NM_001002911.3) in the pEGFP-N1 vector (BD Biosciences)[32], [33]. As previously described, these plasmids carry the signal peptide of mGluR5 to promote cell surface expression followed by a c-myc epitope to enable detection of total and surface expression by ELISA, followed by an engineered MluI and NotI site for easy insertion of the receptor of interest. Furthermore, the start-codon in the GPR139 sequence was deleted to ensure c-myc-tagging. […]
(§2) The Ca^2+ measurements were preformed using the Fluo-4 NW Calcium Assay Kit (Invitrogen, Molecular Probes, F36206) as previously described. […] Intracellular calcium changes were recorded as indicated on either a NOVOstar (BMG Labtech) at 37 °C with an excitation filter of 485 nm and an emission filters 520 nm or a FlexStation 3 Benchtop Multi-Mode Microplate Reader (Molecular Devices) at 37 °C with an excitation wavelength of 485 nm and emission of 525 nm.
(§3) All pharmacological data have been analyzed by using Prism 6.0 (GraphPad Software Inc., San Diego). […] Changes in potency (pEC50) and span of myc-GPR139(WT) in comparison to untagged GPR139(WT) was statistically analyzed with a paired t-test and significance was accepted at p < 0.05. […]

The target of a further experiment is T2, GPR139 E105A3x29 (Homo sapiens, UniProt Q6DWJ6, E105A).
T2 construct: mGluR5 signal peptide (N); expressed in transfected cells; host or cells: HEK293
T2 sequence (Q6DWJ6 2-353 E105A limits assumed): T1 sequence (Q6DWJ6 2-353 L87F limits assumed) with F86L, E104A
The experiment is described as follows: Fluo-4 Ca2+-assay, GPR139 mutant E105A.
Excerpt: as §1, §2, §3

The target of experiment [1] is T3, GPR139 E108A3x29 +E105A3x32 (Homo sapiens, UniProt Q6DWJ6, E105A/E108A).
T3 construct: mGluR5 signal peptide (N); expressed in transfected cells; host or cells: HEK293
T3 sequence (Q6DWJ6 2-353 E105A/E108A limits assumed): T1 sequence (Q6DWJ6 2-353 L87F limits assumed) with F86L, E104A, E107A
The experiment is described as follows: Fluo-4 Ca2+-assay, GPR139 double mutant E105A_E108A.
Excerpt: as §1, §2, §3

In the case of `COc1cc(OC)cc(C(=O)NNC(=O)Nc2cccc3ccccc23)c1` [Compound 1a], the figures for the concentration giving a half-maximal response (EC50) (on GPR139 L87F2x64 (L87F mutant); on GPR139 E105A3x29 (E105A mutant); in experiment [1]) were 427 nM, 129 nM and 200 nM, respectively. In addition, the maximal response (Emax) at GPR139 L87F2x64 (L87F, normalized to buffer (0%) and 8 µM 1a (100%)) came out at 97 ± 14%; at GPR139 E105A3x29 (E105A, normalized to buffer (0%) and 8 µM 1a (100%)), 288 ± 27%; in experiment [1] (normalized to buffer (0%) and 8 µM 1a (100%)), 196 ± 25%.
